Assay results published in publication PMC5335257, “Promoting in vivo remyelination with small molecules: a neuroreparative pharmacological treatment for Multiple Sclerosis” (Scientific Reports, 2017).
Entries after “also recorded” stand apart in the source; their conditions may differ.

Assays:
[1] = system: GSK-3; design: method as in PMID 24437940; conditions: read-out: GSK-3 inhibition IC50; cited from earlier work
[2] = system: PDE7; design: method as in PMID 24437940; conditions: read-out: PDE7 inhibition IC50; cited from earlier work
[3] = system: OPCs from P0 mice; test: Survival assay (Casp3+-A2B5+ cells); type: cell-based, mouse; conditions: murine P0 OPCs, 1 μM, 2 DIV
Procedure: We isolated OPCs, as previously described. Briefly, a stock papain solution was prepared containing ([…]; Worthington Biochemical), L-cysteine (0.2 mg/ml; Sigma), and EDTA (0.2 mg/ml; Sigma) in Hank’s Balanced Salt Solution (HBSS; Invitrogen) without Ca^2+ and Mg[2]. Then, the cerebral cortices of P0 CD1 mice were dissected out and placed for 5 minutes at 37 °C in a medium containing the stock papain solution in HBSS with Ca^2+ and Mg^2+ (1:10; Invitrogen) in order to easily remove the meninges. Once meninges and choroid plexus were removed, the tissue was enzymatically dissociated for 5 minutes at 37 °C again by using the papain solution (1:10 in HBSS without Ca^2+ and Mg^2+) and the digested tissue was then filtered through a 100 μm nylon mesh strainer (BD Biosciences) and seeded on poly-L-ornithine-coated (Sigma) 75 cm^2 flasks in DMEM medium (Invitrogen) containing 10% foetal bovine serum (FBS; BioWhittaker) and 100 U/mL penicillin, 0.1 mg/mL streptomycin and 0.25 μg/ml Amphotericin B antibiotic antimycotic solution (Sigma). Cultures were maintained at 37 °C and 5% CO2, and the medium was changed every 3 days. […] The resulting enriched oligodendrocyte progenitor cell suspension was counted and seeded. […]

[4] = system: corpus callosum of cuprizone-fed mice; test: In vivo remyelination, cuprizone demyelination model; design: species or system C57/BL6 male mice
Procedure: The protocol used was modified from previously described. Demyelination was induced by feeding 8 weeks old male C57/BL6 mice ad libitum with 0.2% cuprizone (bis-cyclo-hexanone-oxaldihydrazone; Sigma) mixed with milled chow (Altromin) for 5 weeks. A control group was maintained in the same conditions but fed with the chow without cuprizone. After cuprizone withdrawal, mice were intraperitoneally injected on 3 alternate days with PDE7-GSK3 inhibitors (VP1.15 or VP3.15; 10 mg/kg of animal) using a solution of the compound (100 mg/mL in DMSO) diluted 1:50 in a solution of 5% Tocrisolve (Tocris, UK) in distilledwater[36] or with the vehicle. 1 week after the cuprizone withdrawal, mice were transcardially perfused with 4% PFA in phosphate buffer. Another group was maintained for 3 weeks after cuprizone withdrawal and injected with 3 doses per week on alternate days of the PDE7-GSK3 inhibitors (10 mg/kg of animal per dose see above) or the vehicle and then perfused. The corpus callosum of three animals per condition was studied. For histological examination, forebrain coronal sections (20 μm) were taken of the rostral part of the corpus callosum as previously described[80][81] and stained with eriochrome cyanine using a standard protocol in order to study the myelin. Briefly, cryosections on glass slides were immersed in acetone for 5 minutes, dried and submerged in eriochrome cyanine solution (Sigma) for 1 hour and then differentiated in 5% (w/v) iron alum for 5–10 minutes, followed by a second differentiation with borax-ferricyanide solution for 5 minutes. The stained area was measured with the Image J software and related to the total analyzed area. For the immunofluorescence analysis, tissue sections were stained with anti-MBP (1:200; Serotec; Cat#MCA4095) for myelin, anti-PDGFRα (1:200; Santa Cruz; Cat#sc338) for OPCs, anti-CC1 (1:100; Calbiochem, Cat#OP80) and anti-GFAP (Glial fibrillary acidic protein; 1:200; Dako; Cat#Z0334) for astrocytes, and tomato lectin (TL; 1:67; Sigma; Cat#L0651) for microglia. Optical images were acquired using an Olympus BX61 microscope and fluorescence images were taken using a DFC480 FX digital camera (Leica) coupled to a Leica DM5000 B microscope or a confocal SP5 resonant scanner (Leica). Myelin staining (with MBP and eriochrome cyanine) and CC1 staining were quantified by taking pictures of non-overlapping fields of coronal sections of the corpus callosum, between the lateral ventricles (2 fields per section, 5–6 sections of each mice; using a x20 objective) and by measuring the fluorescence intensity or blue staining using the Image J software. The number of OPCs per field was also counted in pictures of the midline of the corpus callosum using the x40 objective (4–6 sections per mice). Astrocytes and microglia were evaluated in pictures of the same area of the corpus callosum using the x40 objective and quantified by measuring the area occupied by GFAP or TL staining respectively using the Image J software (4–6 sections per mice). Data were expressed as the mean ± SEM.

[5] = design: method as in PMID 23077723, PMID 25264825; conditions: cited from earlier work

SMILES: c1ccc(-c2n/c(=N/CCN3CCOCC3)sn2-c2ccccc2)cc1 [VP3.15]
- IC50 [1]: 0.88 µM
- IC50 [2]: 1.59 µM
- OPC survival (Casp3+-A2B5+ apoptotic cells) [3]: without affecting
- myelin staining (eriochrome cyanine) in corpus callosum vs vehicle ([4]; 10 mg/kg i.p. on 3 alternate days, 1 week after cuprizone withdrawal): significantly higher myelin staining; also recorded: almost complete remyelination
- myelin quantification by MBP immunodetection ([4]; 10 mg/kg i.p., after cuprizone withdrawal): confirmed these results, with similar effects
- microglial activation (TL staining) vs vehicle ([4]; 1 week after cuprizone withdrawal): Neither VP1.15 nor VP3.15 induced changes
- number of OPCs (PDGFRα+ cells) vs vehicle ([4]; one week after cuprizone withdrawal): significantly lower number of OPCs
- emetic side effects [5]: without emetic side effects
